According to US20250154169A1, “COMPOUNDS AND METHODS FOR MODULATING SPLICING” (REMIX THERAPEUTICS INC., priority 2021, published 2025):
Like-named read-outs stand apart in the source and are kept apart here.

How the values were obtained:
Assay type in all cases: cell-based, human
[1] = tested on: HTT mRNA; assay: Splicing RT-qPCR assay, HTT canonical (CJ) and alternative (AJ) junction mRNA; conditions: A673 or K562 cells, 24 hours compound treatment; for IC50: read-out: HTT CJ (IC50, decrease in canonical junction mRNA); for AC50: read-out: HTT AJ (AC50, increase in alternative junction mRNA)
Procedure, shortened: (§1)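 One-step RT-qPCR on cell lysates, CJ and AJ isoforms quantified; housekeeping normalization GAPDH/GUSB (K562) or PPIA (A673). Cells: A673 in DMEM/10% FBS or K562 in IMDM/10% FBS. Compounds 11-pt 3-fold, top 10 uM, 24 h, 37 °C, 5% CO2.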

[2] = tested on: MYB mRNA; assay: Splicing RT-qPCR assay, MYB canonical (CJ) and alternative (AJ) junction mRNA; conditions: for AC50: read-out: MYB AJ (AC50, increase in alternative junction mRNA)
Procedure, shortened: as §1

[3] = tested on: SMN2 mRNA; assay: Splicing RT-qPCR gene panel, SMN2 canonical junction (CJ) mRNA; conditions: Homo sapiens, Tables 4A/4B, read-out: SMN2 (IC50, decrease in CJ mRNA, gene panel)
Procedure, shortened: (§2)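 Canonical-junction mRNA levels were quantified by RT-qPCR in lysates, using ΔΔCt against a housekeeping gene (GAPDH, GUSB or PPIA) and DMSO wells, expressed as percentage response. Cells (A673 or K562) had been exposed for 24 h at 37° C. to 11 three-fold compound concentrations up to 10 uM, DMSO ≤0.25%.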

[4] = tested on: Target C mRNA; assay: Splicing RT-qPCR gene panel, Target C canonical junction (CJ) mRNA; conditions: Homo sapiens, Tables 4A/4B, read-out: Target C (IC50, decrease in CJ mRNA, gene panel)
Procedure, shortened: as §2

[5] = tested on: HTT mRNA; assay: Splicing RT-qPCR gene panel, HTT canonical junction (CJ) mRNA; conditions: Homo sapiens, Tables 4A/4B, read-out: HTT (IC50, decrease in CJ mRNA, gene panel)
Procedure, shortened: as §2

[6] = Homo sapiens, 24 h, A673 or K562 cells, 24 hours compound treatment, RT-qPCR
[7] = Homo sapiens, 24 h, A673 or K562 cells, 24 hours compound treatment, RT-qPCR, read-out: MYB CJ (IC50, decrease in canonical junction mRNA)
[8] = Homo sapiens, Tables 4A/4B, canonical junction qPCR panel, read-out: MYB (IC50, decrease in CJ mRNA, gene panel)

SMILES	IC50 ([1]; Homo sapiens, 24 h)	IC50 [2, 7]	IC50 [2, 8]	IC50 [3]	IC50 [4]	IC50 [5]	IC50 [1]	IC50 ([2]; A673 or K562 cells, 24 hours compound treatment, RT-qPCR, read-out: MYB CJ (IC50, decrease in canonical junction mRNA))	AC50 ([1]; Homo sapiens)	AC50 [2, 6]	AC50 [1]	AC50 ([2]; A673 or K562 cells, 24 hours compound treatment, RT-qPCR)
CCNC1CCN(c2cc(F)c(C(=O)Nc3cc(F)c4nc(C)cn4c3)c3nn(C)cc23)CC1 [Compound 460]	< 100 nM	< 100 nM	< 100 nM	< 100 nM	100 to 1000 nM	100 to 1000 nM			100 to 1000 nM	< 100 nM		
Cc1nc2c(F)cc(NC(=O)c3ccc(N4CCNCC4)c4cn(C)nc34)cn2n1 [Compound 462, N-{8-fluoro-2-methyl-[1,2,4]triazolo[1,5-a]pyridin-6-yl}-2-methyl-4-(piperazin-1-yl) indazole-7-carboxamide]	100 to 1000 nM	< 100 nM	< 100 nM	< 100 nM	> 10000 nM	100 to 1000 nM			100 to 1000 nM	< 100 nM		
Cc1nnc2n1CC(NC(=O)c1ccc(N3CCNCC3)c3cn(C)nc13)CC2 (stereo not shown) [Compound 470, 2-methyl-N-{3-methyl-5H,6H,7H,8H-[1,2,4]triazolo[4,3-a]pyridin-6-yl}-4-(piperazin-1-yl) indazole-7-carboxamide]	> 10000 nM	> 10000 nM	> 10000 nM	> 10000 nM	> 10000 nM	> 10000 nM			> 10000 nM	> 10000 nM		
CCn1cc2c(N3CCNCC3)cc(F)c(C(=O)Nc3cc(F)c4nc(C)cn4c3)c2n1 [Compound 474, 2-ethyl-6-fluoro-N-{8-fluoro-2-methylimidazo[1,2-a]pyridin-6-yl}-4-(piperazin-1-yl) indazole-7-carboxamide]	< 100 nM	< 100 nM	< 100 nM	< 100 nM	1000 to 10000 nM	100 to 1000 nM			100 to 1000 nM	< 100 nM		

Continued, in another order:

IC50 ([1]; Homo sapiens, 24 h)	IC50 [2, 7]	IC50 [2, 8]	IC50 [3]	IC50 [4]	IC50 [5]	IC50 [1]	IC50 ([2]; A673 or K562 cells, 24 hours compound treatment, RT-qPCR, read-out: MYB CJ (IC50, decrease in canonical junction mRNA))	SMILES	AC50 ([1]; Homo sapiens)	AC50 [2, 6]	AC50 [1]	AC50 ([2]; A673 or K562 cells, 24 hours compound treatment, RT-qPCR)
1000 to 10000 nM	< 100 nM	< 100 nM	< 100 nM	> 10000 nM	1000 to 10000 nM			Cc1cn2cc(NC(=O)c3ccc(N4CC[C@@H](NC5(CF)CC5)C4)c4cn(C)nc34)cc(F)c2n1 [Compound 461, N-{8-fluoro-2-methylimidazo[1,2-a]pyridin-6-yl}-4-[(3R)-3-{[1-(fluoromethyl)cyclopropyl]amino}pyrrolidin-1-yl]-2-methylindazole-7-carboxamide]	> 10000 nM	100 to 1000 nM		
		> 10000 nM	> 10000 nM	> 10000 nM	> 10000 nM	> 10000 nM	> 10000 nM	CCn1cc2c(N3CC[C@@H](NC)C3)ccc(C(=O)Nc3cc(F)c4nc(C)cn4c3)c2n1 [Compound 469, (R)-2-ethyl-N-(8-fluoro-2-methylimidazo[1,2-a]pyridin-6-yl)-4-(3-(methylamino)pyrrolidin-1-yl)-2H-indazole-7-carboxamide]			> 10000 nM	> 10000 nM
> 10000 nM	< 100 nM	< 100 nM	< 100 nM	> 10000 nM	> 10000 nM			CCn1cc2c(N3CC[C@H](N(C)C)C3)cc(F)c(C(=O)Nc3cc(F)c4nc(C)cn4c3)c2n1 [Compound 472, 4-[(3S)-3-(dimethylamino)pyrrolidin-1-yl]-2-ethyl-6-fluoro-N-{8-fluoro-2-methylimidazo[1,2-a]pyridin-6-yl}indazole-7-carboxamide]	1000 to 10000 nM	< 100 nM		
1000 to 10000 nM	< 100 nM	< 100 nM	< 100 nM	> 10000 nM	1000 to 10000 nM			CCn1cc2c(N3CC[C@@H](N(C)C)C3)cc(F)c(C(=O)Nc3cc(F)c4nc(C)cn4c3)c2n1 [Compound 473, 4-[(3R)-3-(dimethylamino)pyrrolidin-1-yl]-2-ethyl-6-fluoro-N-{8-fluoro-2-methylimidazo[1,2-a]pyridin-6-yl}indazole-7-carboxamide; bis(trifluoroacetic acid)]	1000 to 10000 nM	< 100 nM		
